Test: Topical application of the preparation to affected skin areas of plaque psoriasis patients
Type: in vivo, human
Conditions: twice daily, six to twelve weeks
Text: The topical application using the preparation herein for treatment of psoriasis according to the present invention, to accelerate healing, merely requires a once to twice daily application of the formed preparation to the affected areas for a period of six to twelve weeks. Generally, no special precautions are required other than the general precautions which accompany the topical application of topical steroids to the skin. Evaluation of the effectiveness of the preparation herein, is by simple examination of the patient and reduction of rash and other skin symptoms, and by changes in the amounts of itching present.
Topical application of the preparation for plaque psoriasis treatment herein to affected skin areas, on a twice, daily basis, generally produces beneficial effects on plaque psoriasis when applied over a period of time between six to twelve weeks. […] The clearing noted lasting for a prolonged period after treatment. […]
In a regimen for treatment of plaque psoriasis patients, the preparation herein is mixed and provided to the patient for topical application twice daily for a period of six to twelve weeks, depending on the individual patient results which may be evaluated after each four to six week period by an examination of the areas of body of the patient, and the reduction or total clearing of rash and other skin symptoms in those area. […]

## CCC(=O)O[C@]1(C(=O)CCl)[C@@H](C)C[C@H]2[C@@H]3CCC4=CC(=O)C=C[C@]4(C)[C@@]3(F)[C@@H](O)C[C@@]21C [clobetasol propionate]
  outcome of topical treatment of plaque psoriasis (clearing of affected areas), in words: reduction or elimination of the plaque psoriasis
